The assay concerns the target hGPR40 (Homo sapiens, UniProt O14842). The assay is described as follows: FDSS-based intracellular calcium assay. Format: cell-based. On the set-up: 3xFLAG; expressed in transfected cells. The note with it: intracellular Ca2+ response, cells expressing GPR40. The protocol:
FDSS-Based Intracellular Calcium Assay
Compounds are dissolved in DMSO and diluted to desired concentrations with assay buffer and added to the cells as 3× solution (20 μL per well). Run fluorescence/luminescence reader FDSS (Hamamatsu) to read intracellular Ca^2+ response.

hGPR40, sequence (O14842 whole entry): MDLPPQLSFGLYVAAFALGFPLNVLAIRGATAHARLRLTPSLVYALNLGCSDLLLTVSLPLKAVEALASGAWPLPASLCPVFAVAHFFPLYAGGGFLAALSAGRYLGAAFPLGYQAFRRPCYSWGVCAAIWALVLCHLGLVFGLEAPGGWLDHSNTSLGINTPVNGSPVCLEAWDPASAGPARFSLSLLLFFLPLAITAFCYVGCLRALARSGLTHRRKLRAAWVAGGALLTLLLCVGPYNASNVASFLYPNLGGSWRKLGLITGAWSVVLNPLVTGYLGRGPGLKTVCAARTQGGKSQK

As for `COc1cc(N2CC[C@H](Oc3ccc(N4N=C(C(F)(F)F)[C@@H](C)[C@@H]4CC(=O)O)cc3)[C@@H](C)C2)c(Cl)cn1` [Example 81, Isomer 1, 2-((4S,5S)-1-(4-((1-(5-Chloro-2-methoxypyridin-4-yl)-3-methylpiperidin-4-yl)oxy)phenyl)-4-methyl-3-(trifluoromethyl)-4,5-dihydro-1H-pyrazol-5-yl)acetic acid], the EC50 came to 319 nM.

As for `COc1cc(N2CCC(Oc3ccc(N4N=C(C(F)(F)F)[C@@H](C)[C@@H]4CC(=O)O)cc3)C(C)C2)c(Cl)cn1` (stereo partly drawn) [Example 81, Isomer 2, 2-((4S,5S)-1-(4-((1-(5-Chloro-2-methoxypyridin-4-yl)-3-methylpiperidin-4-yl)oxy)phenyl)-4-methyl-3-(trifluoromethyl)-4,5-dihydro-1H-pyrazol-5-yl)acetic acid], the EC50 came out at 71 nM.

Turning to `CCOc1cc(N2CC[C@H](Oc3ccc(N4N=C(C(F)(F)F)[C@@H](C)[C@@H]4CC(=O)O)cc3)[C@@H](C)C2)c(Cl)cn1` [Example 82, 2-((4S,5S)-1-(4-(((3S,4S)-1-(5-Chloro-2-ethoxypyridin-4-yl)-3-methylpiperidin-4-yl)oxy)phenyl)-4-methyl-3-(trifluoromethyl)-4,5-dihydro-1H-pyrazol-5-yl)acetic acid], the EC50 was found to be 760 nM.

`CCOc1cc(N2CC[C@@H](Oc3ccc(N4N=C(C(F)(F)F)[C@@H](C)[C@@H]4CC(=O)O)cc3)[C@H](C)C2)c(Cl)cn1` [Example 83, 2-((4S,5S)-1-(4-(((3R,4R)-1-(5-Chloro-2-ethoxypyridin-4-yl)-3-methylpiperidin-4-yl)oxy)phenyl)-4-methyl-3-(trifluoromethyl)-4,5-dihydro-1H-pyrazol-5-yl)acetic acid]: the EC50 was 224 nM.

Take `CCOc1cc(N2CC[C@H](Oc3ccc(N4N=C(C(F)(F)F)[C@@H](C)[C@@H]4CC(=O)O)cc3)[C@@H](C)C2)c(F)cn1` [Example 84, 2-((4S,5S)-1-(4-(((3S,4S)-1-(2-Ethoxy-5-fluoropyridin-4-yl)-3-methylpiperidin-4-yl)oxy)phenyl)-4-methyl-3-(trifluoromethyl)-4,5-dihydro-1H-pyrazol-5-yl)acetic acid]: the EC50 stood at 2580 nM.

On to `CCOc1cc(N2CC[C@@H](Oc3ccc(N4N=C(C(F)(F)F)[C@@H](C)[C@@H]4CC(=O)O)cc3)[C@H](C)C2)c(F)cn1` [Example 85, 2-((4S,5S)-1-(4-(((3R,4R)-1-(2-Ethoxy-5-fluoropyridin-4-yl)-3-methylpiperidin-4-yl)oxy)phenyl)-4-methyl-3-(trifluoromethyl)-4,5-dihydro-1H-pyrazol-5-yl)acetic acid], for which the EC50 amounted to 277 nM.

`COc1ccc(F)c(N2CCC(Oc3ccc(N4N=C(c5ccc(C#N)cc5)[C@@H](C)[C@@H]4CC(=O)O)cc3)CC2)c1` [Example 91, 2-((4S,5S)-3-(4-Cyanophenyl)-1-(4-((1-(2-fluoro-5-methoxyphenyl)piperidin-4-yl)oxy)phenyl)-4-methyl-4,5-dihydro-1H-pyrazol-5-yl)acetic acid]: the EC50 was found to be 62 nM.

For `COC(=O)c1ccc(C2=NN(c3ccc(OC4CCN(c5cc(OC)ccc5F)CC4)cc3)[C@@H](CC(=O)O)[C@@H]2C)cc1` [Example 92, 2-((4S,5S)-1-(4-((1-(2-Fluoro-5-methoxyphenyl)piperidin-4-yl)oxy)phenyl)-3-(4-(methoxycarbonyl)phenyl)-4-methyl-4,5-dihydro-1H-pyrazol-5-yl)acetic acid], the EC50 stood at 139 nM.

As to `CCOc1ccc(F)c(N2CCC(Oc3ccc(N4N=C(c5ccc(C#N)cc5F)[C@@H](C)[C@@H]4CC(=O)O)cc3)CC2)c1` [Example 94, 2-((4S,5S)-3-(4-Cyano-2-fluorophenyl)-1-(4-((1-(5-ethoxy-2-fluorophenyl)piperidin-4-yl)oxy)phenyl)-4-methyl-4,5-dihydro-1H-pyrazol-5-yl)acetic acid], the EC50 is 59 nM.

For `CCOc1ccc(F)c(N2CCC(Oc3ccc(N4N=C(c5ccc(F)cc5)[C@@H](C)[C@@H]4CC(=O)O)cc3)CC2)c1` [Example 95, 2-((4S,5S)-1-(4-((1-(5-Ethoxy-2-fluorophenyl)piperidin-4-yl)oxy)phenyl)-3-(4-fluorophenyl)-4-methyl-4,5-dihydro-1H-pyrazol-5-yl)acetic acid], the concentration giving a half-maximal response (EC50) was found to be 108 nM.

With `C[C@@H]1C(C(F)(F)F)=NN(c2ccc(OC3CCN(c4cc(O)ccc4F)CC3)cc2)[C@H]1CC(=O)O` [Example 102, 2-((4S,5S)-1-(4-((1-(2-Fluoro-5-hydroxyphenyl)piperidin-4-yl)oxy)phenyl)-4-methyl-3-(trifluoromethyl)-4,5-dihydro-1H-pyrazol-5-yl)acetic acid], the EC50 is 190 nM.

For `COc1ccc(C)c(N2CCC(Oc3ccc(N4N=C(C(F)(F)F)[C@@H](C)[C@@H]4CC(=O)O)cc3)CC2)c1` [Example A2, 2-((4S,5S)-1-(4-(1-(5-Methoxy-2-methylphenyl)piperidin-4-yloxy)phenyl)-4-methyl-3-(trifluoromethyl)-4,5-dihydro-1H-pyrazol-5-yl)acetic acid], the half-maximal effective concentration (EC50) was determined as 161 nM.

For the compound `COc1cc(N2CC[C@@H](Oc3ccc(N4N=C(C(F)(F)F)[C@@H](C)[C@@H]4CC(=O)O)c(Br)c3)[C@H](C)C2)c(Cl)cn1` [Example A3, 2-((4S,5S)-1-(2-Bromo-4-(((3R,4R)-1-(5-chloro-2-methoxypyridin-4-yl)-3-methylpiperidin-4-yl)oxy)phenyl)-4-methyl-3-(trifluoromethyl)-4,5-dihydro-1H-pyrazol-5-yl)acetic acid], the EC50 is 844 nM.

As for `COc1cc(N2CC[C@@H](Oc3ccc(N4N=C(C(F)(F)F)[C@@H](C)[C@@H]4CC(=O)O)cc3Br)[C@H](C)C2)c(Cl)cn1` [Example A4, 2-((4S,5S)-1-(3-Bromo-4-(((3R,4R)-1-(5-chloro-2-methoxypyridin-4-yl)-3-methylpiperidin-4-yl)oxy)phenyl)-4-methyl-3-(trifluoromethyl)-4,5-dihydro-1H-pyrazol-5-yl)acetic acid], the EC50 came out at 45 nM.

For the origin of these results see patent publication US9133163B2, “Dihydropyrazole GPR40 modulators” (Bristol-Myers Squibb Company, priority 2012, dated 2015).
